Like-named read-outs stand apart in the source and are kept apart here. Ends that are not written are not given here.
Key:
[1] = biological target: T1, Mam2 receptor (Schizosaccharomyces pombe, UniProt Q00619); assay: P-factor dose-response, Mam2 sensor strain in yWS677, sfGFP by flow cytometry; type: cell-based
T1 construct: expressed in transfected cells; host or cells: Saccharomyces cerevisiae yWS677 (BY4741 derivative), chromosomally integrated YTK cassette
T1 sequence (Q00619 1-348): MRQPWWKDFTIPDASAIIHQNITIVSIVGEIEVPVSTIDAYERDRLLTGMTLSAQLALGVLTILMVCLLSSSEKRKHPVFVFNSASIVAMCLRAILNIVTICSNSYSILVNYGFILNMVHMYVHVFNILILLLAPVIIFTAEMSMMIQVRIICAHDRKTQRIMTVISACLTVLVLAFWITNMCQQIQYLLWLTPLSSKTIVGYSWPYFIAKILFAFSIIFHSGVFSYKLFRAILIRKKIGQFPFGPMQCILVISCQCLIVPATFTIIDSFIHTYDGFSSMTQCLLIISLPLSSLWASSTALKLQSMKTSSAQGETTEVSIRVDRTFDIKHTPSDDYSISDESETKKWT

[2] = test system: Ste2; assay: α-factor dose-response of pheromone response pathway strains, sfGFP by flow cytometry; type: cell-based, Saccharomyces cerevisiae
[3] = biological target: T2, human A2BR receptor (Homo sapiens, UniProt P29275); assay: Adenosine dose-response, A2BR sensor strain, sfGFP by flow cytometry; type: cell-based; conditions: Fig S6C, wild-type Gpa1, triplicate isolates
T2 sequence (P29275 1-332): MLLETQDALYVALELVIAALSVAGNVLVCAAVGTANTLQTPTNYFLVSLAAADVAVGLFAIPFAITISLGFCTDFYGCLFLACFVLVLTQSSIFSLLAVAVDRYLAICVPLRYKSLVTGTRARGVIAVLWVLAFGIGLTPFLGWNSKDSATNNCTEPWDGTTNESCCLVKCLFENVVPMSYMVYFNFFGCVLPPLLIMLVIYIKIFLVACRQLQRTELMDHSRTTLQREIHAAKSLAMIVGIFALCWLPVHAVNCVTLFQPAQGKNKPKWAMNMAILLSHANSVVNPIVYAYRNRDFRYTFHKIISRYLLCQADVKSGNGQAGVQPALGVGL
T2 sequence (P08539 2-472 partner): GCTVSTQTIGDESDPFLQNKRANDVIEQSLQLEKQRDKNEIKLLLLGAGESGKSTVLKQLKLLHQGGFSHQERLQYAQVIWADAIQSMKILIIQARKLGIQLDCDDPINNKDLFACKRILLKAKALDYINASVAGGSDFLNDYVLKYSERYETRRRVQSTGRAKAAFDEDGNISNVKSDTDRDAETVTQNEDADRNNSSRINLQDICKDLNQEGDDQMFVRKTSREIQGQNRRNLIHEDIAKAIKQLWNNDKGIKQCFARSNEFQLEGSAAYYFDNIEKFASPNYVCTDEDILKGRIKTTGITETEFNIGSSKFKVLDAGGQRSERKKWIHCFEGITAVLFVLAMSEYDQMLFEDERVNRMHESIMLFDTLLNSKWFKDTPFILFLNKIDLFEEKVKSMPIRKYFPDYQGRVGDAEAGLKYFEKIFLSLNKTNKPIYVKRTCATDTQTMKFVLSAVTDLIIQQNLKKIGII

[4] = biological target: T2, human A2BR receptor; assay: Adenosine dose-response, A2BR single strain and three-strain consortium, sfGFP by plate reader; type: cell-based; conditions: for Hill slope: plate reader
[5] = biological target: T3, human MTNR1A receptor (Homo sapiens, UniProt P48039)
T3 sequence (P48039 whole entry, one chain of several): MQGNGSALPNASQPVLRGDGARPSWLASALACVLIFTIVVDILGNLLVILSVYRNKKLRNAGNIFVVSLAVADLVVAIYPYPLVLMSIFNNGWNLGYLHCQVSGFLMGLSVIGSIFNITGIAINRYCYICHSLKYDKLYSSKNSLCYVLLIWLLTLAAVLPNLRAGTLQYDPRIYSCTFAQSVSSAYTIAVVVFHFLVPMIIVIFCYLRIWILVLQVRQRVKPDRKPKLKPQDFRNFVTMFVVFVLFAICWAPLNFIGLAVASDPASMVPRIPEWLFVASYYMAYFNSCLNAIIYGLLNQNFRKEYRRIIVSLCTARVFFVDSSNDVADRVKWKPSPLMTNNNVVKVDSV

[6] = biological target: T3, human MTNR1A receptor; conditions: for Hill slope: plate reader
[7] = test system: P. brasiliensis Ste2 homolog (PbSte2); assay: PbPeptide dose-response, PbSte2 sensor single cell and two-cell amplifier-receiver consortium, GFP by plate reader; type: cell-based, Paracoccidioides brasiliensis
Description: For pathogen detection, we next set out to tune a point-of-care sensor for Paracoccidioides brasiliensis, recently developed by [Ostrov et al. (2017)]. This yeast GPCR-based sensor, utilizing the Ste2 homolog from P. brasiliensis (PbSte2), detects environmental levels of pheromone peptide released by haploid P. brasiliensis cells (PbPeptide) as a means of specifically detecting this human pathogen in complex samples (Figure 6E). […] To optimize these two properties, we applied our amplifier-receiver two strain approach to the PbSte2 sensor (Figures 6F–6H).

[8] = test system: P. brasiliensis Ste2 homolog (PbSte2); conditions: PbSte2 in S. cerevisiae; ref Ostrov et al., 2017; cited from earlier work
Description: (D) The ... || For pathogen detection, we next set out to tune a point-of-care sensor for Paracoccidioides brasiliensis, recently developed by [Ostrov et al. (2017)]. This yeast GPCR-based sensor, utilizing the Ste2 homolog from P. brasiliensis (PbSte2), detects environmental levels of pheromone peptide released by haploid P. brasiliensis cells (PbPeptide) as a means of specifically detecting this human pathogen in complex samples (Figure 6E).

[9] = three-strain consortium 1:1:1 vs initial response

Question: With TYADFLRAYQSWNTFVNPDRPNL [P-factor] as the compound, how does the EC50 ([1]; Fig 4D, Mam2 - yWS677, 4 h induction, 1 % DMSO, SC medium, 30°C, sfGFP flow cytometry, mean ± SD, triplicate isolates) read?
Answer: 117 nM

Question: And the “potency (EC50) compared with native S. pombe response” value ([1]; Mam2 sensor strain vs S. pombe (Croft et al., 2013))?
Answer: identical potency (EC50)

Question: Which “activation at 100 pM ɑ-factor on Ste2 overexpression” value ([2]; Design 4 strain with 2x and 3x Ste2 (pCCW12), Fig S4H) does the source give for “WHWLQLKPGQPMY [α-factor, S. cerevisiae peptide pheromone, ligand of Ste2]” here?
Answer: unchanged

Question: What about the “sensitivity and signal output compared with BY4741” value ([2]; Quasi-WT strain, FUS1 promoter-sfGFP) of the same compound?
Answer: substantial increase in sensitivity and signal output

Question: And the “sensitivity compared with Quasi-WT” value ([2]; design 3 strain (Gpa1 by PGK1, Ste2 by pCCW12), Fig 4A-B)?
Answer: approached the sensitivity of the Quasi-WT strain

Question: What does the source list for `Nc1ncnc2c1ncn2[C@@H]1O[C@H](CO)[C@@H](O)[C@H]1O` [Adenosine]?
Answer: Hill slope [3]: 1.32 ± 0.08; Hill slope ([4]; Fig 5B, single pop.): 1.41 ± 0.10; operational range ([4]; Fig 5B, single pop., span between 5% and 95% of the activated response): 1.56 ± 0.07 orders of magnitude; operational range ([4]; Fig 5C legend, consortia of three engineered strains): 3.3 orders of magnitude; Hill slope ([4]; Fig 5C, mixed pop. of three strains 1:1:1): 0.78 ± 0.02; operational range ([4]; Fig 5C, mixed pop. of three strains 1:1:1, span between 5% and 95% of the activated response): 3.27 ± 0.08 orders of magnitude; change in Hill slope [4, 9]: almost halved the Hill slope; increase in operational range [4, 9]: 50 -fold

Question: For `COc1ccc2[nH]cc(CCNC(C)=O)c2c1` [Melatonin], which Hill slope ([5]; Fig S6D, MTNR1A sensor strain, wild-type Gpa1, flow cytometry, triplicate isolates) is on record?
Answer: 0.80 ± 0.04

Question: What about the “linear range of dose-response” value ([5]; two-strain consortia, Fig 6B) of the same compound?
Answer: four

Question: And the “operational range” value ([6]; Fig 5F legend, single population)?
Answer: 3.8 orders of magnitude

Question: And the Hill slope ([6]; Fig 5F, single pop.)?
Answer: 0.69 ± 0.03

Question: And the operational range ([6]; Fig 5F, single pop., span between 5% and 95% of the activated response)?
Answer: 3.79 ± 0.15 orders of magnitude

Question: And the Hill slope ([6]; Fig 5G, mixed pop., tuned two-strain system 1:1)?
Answer: 1.65 ± 0.06

Question: And the operational range ([6]; Fig 5G, mixed pop., two-strain system, span between 5% and 95% of the activated response)?
Answer: 1.48 ± 0.19 orders of magnitude

Question: For WCTRPGQGC [PbPeptide], which detection range ([7]; CCW12 promoter and signal amplification, two-strain consortia) is on record?
Answer: picomolar range

Question: What about the “narrowing of operational range” value ([7]; amplifier-receiver two strain consortia) of the same compound?
Answer: 1,000 -fold

Question: And the sensitivity [8]?
Answer: nanomolar sensitivity

Source: paper PMC6476273, “Engineering a Model Cell for Rational Tuning of GPCR Signaling” (Cell, 2019)
